In one data set the test system is leukemia. Nature of the data set: In vivo study of alkaline emodin preparation in leukemia-injected C3H-HEJ mice. As to the method: In vivo: The mouse strain C3H-HEJ (8-10 weeks old) were used for in vivo studies. Emodin was prepared in an alkaline preparation at 10 mg/ml, and was administered to the animals via tail vein injections. One cohort of animals received a single dose of emodin equal to 43 mg/kg per animal. Two other cohorts received either two doses of drug, administered on consecutive days, or there doses of drug, administered on consecutive days. The total concentration of drug administered were 86 mg/kg and 129 mg/kg, respectively. Animals were followed until death, euthanized upon detection of illness, or euthanized at 100 days post leukemia injection.

Data set [1] relates to tetracycline regulatable 32D-P210 cell line. Nature of the data set: MTT assay of cell growth, 3 day exposure to emodin. Type of data set: cell-based. Conditions: emodin solubilized in DMSO, MTT assay at 72 hours, read-out: IC 50, inhibition of cellular growth. As to the method: In Vitro: A tetracycline regulatable 32D-P210 cell line was cultured in RPMI 1640 with 10% FCS and 10% Wehi supernatant and cultured at 37° C. Emodin was solubilized in DMSO at a concentration of 0.4 M for in vitro assays. A concentration of 3×10^4 cells/ml were used in a 24 well plate for a 3 day exposure to emodin. Emodin was assayed at 60 μM, 30 μM, and 10 μM concentrations. At 72 hours, a MTT assay was performed to provide a colorometric analysis of cell growth.
A general note: Tetrazolium dyes change colour on reduction, which living cells bring about.

For `Cc1cc(O)c2c(c1)C(=O)c1cc(O)cc(O)c1C2=O` [emodin, 3-methyl-1,6, 8 trihydroxyanthra-quinone], in the data set on leukemia (alkaline preparation at pH 10, tail vein injection, some bruising of the tail noted), the “tolerability of the preparation by the animal” value was “moderately well tolerated”. Also, the “lifespan of animals injected with leukemia” value in the data set with leukemia (alkaline preparation, tail vein injections, 43, 86 or 129 mg/kg total, untreated 25 days, animals sacrificed at 100 days) turned out to be 100 days. Further, the IC50 in data set [1] is approximately 10 µM.
